Tested on: normal human lung fibroblasts
Assay: Ribosomal profiling: translational efficiency in TGFβ-treated fibroblasts
Type: cell-based
In short: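 Genome-wide RPF and total RNA libraries (ARTseq, RNA-Seq) were made from lysates of cycloheximide-treated, PBS-washed cells. After trimming and human-genome mapping, per-gene coding-region counts were compared between RPF and RNA for translational efficiency. Genes scoring low in either fraction were dropped.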

Substance: TGFβ
- Log2 TE RPS6KA5 (ENSG00000100784, 5 replicates): −1.431
- Log2 TE CEP192 (ENSG00000101639, 5 replicates): −1.192
- change in translational profile of CEP192 caused by TGFβ (ENSG00000101639, Control vs. TGFβ): C (C = <−1.0 to −1.5)
- change in translational profile of AMMECR1 caused by TGFβ (ENSG00000101935, Control vs. TGFβ): D (D = <1.0 to 1.5)
- change in translational profile of PLP2 caused by TGFβ (ENSG00000102007, Control vs. TGFβ): D (D = <1.0 to 1.5)
- Log2 TE SGK3 (ENSG00000104205, 5 replicates): −1.011
- Log2 TE TRPA1 (ENSG00000104321, 5 replicates): −1.256
- Log2 TE EIF3E (ENSG00000104408, 5 replicates): 1.469
- change in translational profile of EIF3E caused by TGFβ (ENSG00000104408, Control vs. TGFβ): E (E = <1.5 to 2.5)
- Log2 TE EEF1D (ENSG00000104529, 5 replicates): 1.619
- change in translational profile of EEF1D caused by TGFβ (ENSG00000104529, Control vs. TGFβ): E (E = <1.5 to 2.5)
- change in translational profile of C19orf53 caused by TGFβ (ENSG00000104979, Control vs. TGFβ): D (D = <1.0 to 1.5)
- Log2 TE RPS16 (ENSG00000105193, 5 replicates): 1.989
- Log2 TE RPS19 (ENSG00000105372, 5 replicates): 1.55
- Log2 TE GLTSCR2 (ENSG00000105373, 5 replicates): 2.067
- change in translational profile of GLTSCR2 caused by TGFβ (ENSG00000105373, Control vs. TGFβ): E (E = <1.5 to 2.5)
- change in translational profile of RAB3D caused by TGFβ (ENSG00000105514, Control vs. TGFβ): B (B = <−1.5 to −2.5)
- Log2 TE RPL18A (ENSG00000105640, 5 replicates): 1.669
- change in translational profile of RPL18A caused by TGFβ (ENSG00000105640, Control vs. TGFβ): E (E = <1.5 to 2.5)
- Log2 TE COMP (ENSG00000105664, 5 replicates): 1.317
- change in translational profile of COMP caused by TGFβ (ENSG00000105664, Control vs. TGFβ): E (E = <1.5 to 2.5)
- Log2 TE GLCCI1 (ENSG00000106415, 5 replicates): −1.842
- change in translational profile of GLCCI1 caused by TGFβ (ENSG00000106415, Control vs. TGFβ): B (B = <−1.5 to −2.5)
- Log2 TE CORO2A (ENSG00000106789, 5 replicates): 1.212
- change in translational profile of CORO2A caused by TGFβ (ENSG00000106789, Control vs. TGFβ): E (E = <1.5 to 2.5)
- change in translational profile of GDF10 caused by TGFβ (ENSG00000107623, Control vs. TGFβ): C (C = <−1.0 to −1.5)
- Log2 TE RPL28 (ENSG00000108107, 5 replicates): 1.869
- change in translational profile of RPL28 caused by TGFβ (ENSG00000108107, Control vs. TGFβ): E (E = <1.5 to 2.5)
- Log2 TE RPL19 (ENSG00000108298, 5 replicates): 1.075
- change in translational profile of RPL19 caused by TGFβ (ENSG00000108298, Control vs. TGFβ): D (D = <1.0 to 1.5)
- Log2 TE RASD1 (ENSG00000108551, 5 replicates): 1.836
- change in translational profile of RASD1 caused by TGFβ (ENSG00000108551, Control vs. TGFβ): E (E = <1.5 to 2.5)
- Log2 TE SLC16A6 (ENSG00000108932, 5 replicates): −1.3497
- change in translational profile of NAT9 caused by TGFβ (ENSG00000109065, Control vs. TGFβ): D (D = <1.0 to 1.5)
- Log2 TE INPP4B (ENSG00000109452, 5 replicates): −1.569
- Log2 TE RPL34 (ENSG00000109475, 5 replicates): 1.608
- change in translational profile of RPL34 caused by TGFβ (ENSG00000109475, Control vs. TGFβ): E (E = <1.5 to 2.5)
- Log2 TE NEIL3 (ENSG00000109674, 5 replicates): −2.63
- Log2 TE CRYAB (ENSG00000109846, 5 replicates): 1.107
- change in translational profile of CRYAB caused by TGFβ (ENSG00000109846, Control vs. TGFβ): D (D = <1.0 to 1.5)
- Log2 TE RPS13 (ENSG00000110700, 5 replicates): 1.539
- Log2 TE KRT18 (ENSG00000111057, 5 replicates): 1.811
- Log2 TE GAPDH (ENSG00000111640, 5 replicates): 1.263
- change in translational profile of GAPDH caused by TGFβ (ENSG00000111640, Control vs. TGFβ): E (E = <1.5 to 2.5)
- Log2 TE C12orf57 (ENSG00000111678, 5 replicates): 1.173
- change in translational profile of C12orf57 caused by TGFβ (ENSG00000111678, Control vs. TGFβ): D (D = <1.0 to 1.5)
- Log2 TE BVES (ENSG00000112276, 5 replicates): 1.173
- Log2 TE RPS12 (ENSG00000112306, 5 replicates): 1.642
- change in translational profile of MDFI caused by TGFβ (ENSG00000112559, Control vs. TGFβ): A (A = <−2.5)
- Log2 TE HBEGF (ENSG00000113070, 5 replicates): 1.088
- change in translational profile of HBEGF caused by TGFβ (ENSG00000113070, Control vs. TGFβ): D (D = <1.0 to 1.5)
- Log2 TE THG1L (ENSG00000113272, 5 replicates): 1.155
- Log2 TE RPL24 (ENSG00000114391, 5 replicates): 1.304
- change in translational profile of RPL24 caused by TGFβ (ENSG00000114391, Control vs. TGFβ): E (E = <1.5 to 2.5)
- Log2 TE EEF1B2 (ENSG00000114942, 5 replicates): 1.434
- change in translational profile of EEF1B2 caused by TGFβ (ENSG00000114942, Control vs. TGFβ): E (E = <1.5 to 2.5)
- Log2 TE IFIH1 (ENSG00000115267, 5 replicates): −1.416
- change in translational profile of IFIH1 caused by TGFβ (ENSG00000115267, Control vs. TGFβ): B (B = <−1.5 to −2.5)
- Log2 TE RPS15 (ENSG00000115268, 5 replicates): 1.3

— US9993494B2, “Compositions and methods for treating fibrotic disease” (eFFECTOR Therapeutics, Inc., priority 2014, dated 2018)
